Experimental data published in patent US8334413B2, “Topical compositions and methods for epithelial-related conditions” (Signum Biosciences, Inc., priority 2004, dated 2012).
Each block holds one compound with its values, some of them ahead of it.

Experiments:
TPA-induced MPO activity [1] = assay: TPA-induced MPO activity in the contralateral vehicle-treated ear (systemic effect); assay type: in vivo, mice
Description: These included dexamethasone, a steroid, and indomethasone, a non-steroid anti-inflammatory drug, which targets cycloxygenases. The action of AFC in this model was, therefore, compared to that of dexamethasone and indomethasone. Each of these agents were tested using the same protocols used to test AFC.

mouse ear [2] = assay: TPA dose response, mouse ear edema; assay type: in vivo, Swiss Webster mice; conditions: TPA 0.25 to 1.75 μg/20 μl in acetone, topical, 5.5 hours, 6 mm ear punch
Description: Increasing concentrations of TPA dissolved in acetone were applied with the aid of a micropipetter onto the right ear of each of the five 6-8 week old, male Swiss Webster mice used in this analysis. Ten microliters were spread evenly onto the inner and outer surfaces using the pipette tip. The mice were then returned to their cages. The contralateral ear was treated only with acetone. After 5.5 hours, the mice were sacrificed and 6 mm punches were taken from each ear and weighed. Edema response was expressed as a percent increase in the treated ear's weight over the untreated ear. The dose response curve, as well as an ED50 value, was determined using the Lichtfield method (Lichtfield J T W. F., A simplified method of evaluating dose-effect experiments, Journal of Pharmacology and Experimental Therapeutics, 1948, 96: P. 99-113).

mouse ear [3] = assay: AFC in acetone alone, mouse ear edema (irritancy); assay type: in vivo, mice; conditions: topical, dose up to 32 mg/20 μl, 5.5 hours
Description: The AFC inventive compositions were spread evenly with a pipette tip. Each contralateral ear was treated with only acetone in the same manner. The mice then were returned to their cages. After 5.5 hours, mice were sacrificed and 6 mm punches were taken from each ear and weighed. Edema response was expressed as the percent increase in the treated ear's weight over the untreated (acetone, vehicle only) ear.

TPA-induced edema = assay: TPA-induced edema, murine ear acute contact irritation model; assay type: in vivo, mice; conditions: 2 μg TPA/20 μl acetone, AFC 15 min later, topical, 5.5 hours
Description: In order to assess the effects of the inventive composition on TPA-induced edema, 2 μg of TPA in 20 μl acetone was applied with the aid of a micropipetter onto both ears of each of 6 mice. The mice were returned to their cages. […] 20 μl of an acetone vehicle was applied similarly to the left ear of each mouse as an internal negative control. After treatment, the mice were returned to their cages for 5.5 hours. The mice were sacrificed by cervical dislocation. The ears were immediately removed at their base and a 6 mm diameter punch biopsy was taken from the center of each ear. The ear punch was weighed on an analytical balance for edema measurements as described above.

TPA-induced MPO activity [4] = assay: TPA-induced neutrophil infiltration, MPO assay; assay type: in vivo, Swiss Webster male mice
Description: Neutrophil-infiltration Assay: Swiss Webster male mice (n=6) were treated with 1 μg/20 μl of TPA as described above in order to assess whether or not TPA induced neutrophil infiltration. Acetone was used as a control. TPA was administered as described above. The mice were returned to their cages for 24 hrs to allow neutrophil infiltration, then sacrificed by cervical dislocation. The ears were immediately removed for punch biopsy, and punches were fixed for subsequent histological analysis and MPO enzymatic assay.
MPO Assay: This assay measures myeloperoxidase, (“MPO”) which is packaged in the primary granules of mature granulocytes including the neutrophil. Thus, the amount of MPO in the ear is proportional to the number of infiltrating neutrophils.
MPO enzyme activity of the ears was assayed using the technique detailed by Griffiths and coworkers (1988). To conduct the assay, each ear was homogenized in 1.0 ml of cetyltrimethylammonium bromide buffer for 5 sec using a Pro 200 tissue blender (Pro Scientific, Inc., Oxford, Conn.) at setting 5. These samples were then centrifuged for 5 minutes at 15,000 rpm in a 5415 Eppendorf microcentrifuge. Triplicate 20 microliter aliquots of supernatant were added to 200 microliters of reaction mixture (1.25 ml 1M Potassium Phosphate, 4.175 mg o-dianisidine dihydrochloride and 5 μl of 1% peroxide in a final volume of 25 ml). Absorbance at 450 nm was then measured at room temperature at three 60 second intervals using Bio-Kinetics Reader EL 312E (Bio-Tek Instruments). Activity, which was determined by a Bradford assay of the homogenate (BioRad Protein Assay, BioRad Laboratories, Inc. Hercules, Calif.) was expressed as units MPO per mg tissue +/−standard error.
(§1) Two micrograms of TPA in 20 μl of acetone was applied onto both ears of each mouse to induce neutrophil infiltration. […] After 24 hours, the mice were sacrificed.

[5] = test system: TPA-induced neutrophil infiltration; assay: TPA-induced neutrophil infiltration, neutrophil counting assay (histology); assay type: in vivo, mice; conditions: 24 hours
Description: Neutrophil Counting Assay: Ear punches buffered in 10% formalin in PBS at ambient temperature for a minimum of 24 hrs. were sectioned and stained with Hematoxilin & Eosin (“H&E”). The number of neutrophils, identified by their multilobular nuclei, in 6 randomly 100× magnified fields distributed along the length of the ear were manually counted. The results are expressed as the average number per field for each ear.
as §1

TPA-induced MPO activity [6] = assay: TPA-induced MPO activity at different application times; assay type: in vivo, mice; conditions: 1 μg/20 μl TPA; 1 mg/20 μl AFC at various times before and after TPA
Description: In this example, both ears of six mice were treated with a 1 μg/20 μl dose of TPA in acetone.

TPA-induced erythema = assay: TPA-induced erythema, mouse ear; assay type: in vivo; conditions: 1 μg/20 μl TPA, 1 mg/20 μl AFC after 1 hour, photo 23 hours later
Description: For this example, both ears of a mouse were treated with a 1 μg/20 μl dose of TPA in acetone. […] The photo was taken 23 hours later using a Nikon D70 digital camera.

human skin = assay: SDS irritant patch test on human skin, AFC pre-applied; assay type: in vivo; conditions: 140 mM AFC aqueous formulation pre-applied
Description: An irritant was applied to the middle of the upper back of a human subject using a 0.2 ml 20% SDS solution and a Hill-Top Chamber patch with Webril pad. […] Patches 1a and 2a were removed after 2 hours, while patches 1b and 2b were removed after 2 hours and 30 minutes. High levels of irritation were visible in patch sites 2a and 2b.

chronic irritation = assay: Chronic irritation by multiple TPA applications, mouse ear; assay type: in vivo, mice; conditions: AFC in acetone, applied 6 hr apart on days 7, 8 and 9; TPA days 0, 2, 4, 7, 9
Description: The effectiveness of the inventive compositions against established chronic irritation is assayed using a modification of the technique of Stanley P L et al., Mouse skin inflammation induced by multiple topical application 12-O-tetradeconoyphorbol-13-acetate. Skin Pharmacol. 1991, 4: p 262-271. (1991). Both ears of each mouse are treated with TPA in acetone, as above, in a series of 5 applications on the mornings of days 0, 2, 4, 7, and 9. […] Punches of the ears are taken the afternoon of the tenth day and prepared, as above, for the edema assay and the infiltration of neutrophils. Total granulocyte infiltration is assayed by measuring MPO activity. Macrophage infiltration is determined immunocytologically using the MOMA-2 antibody. Hydrocortisone, which is known to reduce inflammatory edema granulation infiltration and microphage infiltration, is used as a positive control.

[7] = test system: delayed-type hypersensitivity; assay: DNFB delayed-type hypersensitivity, mouse ear; assay type: in vivo, mice; conditions: AFC 0.5 hr before or 15 min after DNFB challenge, assay 5 hr later
Excerpt: The mouse ear model, described above, is modified to assay the effect of anti-inflammatory agents in an immune based inflammation model (See Tramposch, K. M., Skin Inflammation, in In Vivo Models of Inflammation, M. L. Morgan D W, Editor. 1999, Birkhauser Verlag. p. 179-20 and Chapman, J. R., Z. Ruben, and G. M. Butchko, Histology of and quantitative assays for oxazolone-induced allergic contact dermatitis in mice. Am J Dermatopathol, 1986. 8(2): p. 130-8). In this model, a sensitizing dose of dinitrofluorobenzene (“DNFB”) 1-3% in acetone is applied topically according to a modification of the method by Back et al. (See Back, O. and T. Egelrud, Topical glucocorticoids and suppression of contact sensitivity. A mouse bioassay of anti-inflammatory effects. Br J Dermatol, 1985. 112(5): p. 539-45 and Bailey, S. C., et al., A novel contact hypersensitivity model for rank-ordering formulated corticosteroids. Inflamm Res, 1995. 44 Suppl 2: p. S162-3) to the shaved bellies of mice to elicit an immune response. Mice are challenged on day 5 with 40 μl of 0.5-1% DNFB to each ear. […] The ears are assayed for edema or neutrophil infiltration 5 hr later. Dexamethasone is used as a positive control. Five days later, the ears are challenged topically with a dose of DNFB insufficient to produce contact irritation. Simultaneously, cell infiltration studies are initiated. […]

[8] = target: membrane-associated polyisoprenoid methyl transferase (Homo sapiens, UniProt O60725); conditions: cited from earlier work
[9] = test system: neutrophil, macrophage, and platelet responses; conditions: cited from earlier work
[10] = 2 μg TPA/20 μl acetone, AFC 15 min later, topical, 24 hours

membrane-associated polyisoprenoid methyl transferase, sequence (O60725 whole entry): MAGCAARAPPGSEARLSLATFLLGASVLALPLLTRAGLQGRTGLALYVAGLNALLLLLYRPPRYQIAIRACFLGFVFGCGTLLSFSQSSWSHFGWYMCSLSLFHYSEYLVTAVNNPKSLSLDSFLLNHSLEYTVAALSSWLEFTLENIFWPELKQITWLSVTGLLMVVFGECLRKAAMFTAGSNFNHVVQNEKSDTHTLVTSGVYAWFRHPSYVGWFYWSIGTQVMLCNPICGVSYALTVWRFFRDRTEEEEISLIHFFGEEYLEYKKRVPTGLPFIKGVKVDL

MPO activity in contralateral vehicle-treated ear (systemic effect) (TPA-induced MPO activity [1]; mouse, in vivo): increasing inhibition of MPO activity
Compound: COc1ccc2c(c1)c(CC(=O)O)c(C)n2C(=O)c1ccc(Cl)cc1 [indomethasone]

MPO activity in contralateral vehicle-treated ear (systemic effect) (TPA-induced MPO activity [1]; mouse, in vivo): increasing inhibition of MPO activity
Compound: C[C@@H]1C[C@H]2[C@@H]3CCC4=CC(=O)C=C[C@]4(C)[C@@]3(F)[C@@H](O)C[C@]2(C)[C@@]1(O)C(=O)CO [dexamethasone]

Compound: tetradecanoylphorbol acetate [TPA]
maximum increase in ear weight (mouse ear [2]): approximately 150 % of the acetone-treated ear

inflammation activity of AFC on its own in the Neutrophil-Infiltration Assay (TPA-induced MPO activity [4]; AFC alone): no inflammation activity of its own
MPO activity in contralateral vehicle-treated ear (systemic effect) (TPA-induced MPO activity [1]; topical, increasing concentration on the other ear, TPA on both ears): no effect
Compound: CC(=O)N[C@@H](CSCC=C(C)CCC=C(C)CCC=C(C)C)C(=O)O (stereo in doubt) [AFC, N-acetyl-S-farnesylcysteine]
edema response (ear punch biopsy weight), AFC alone (mouse ear [3]): no effect
maximum reduction in TPA-induced edema (TPA-induced edema): 80%
ED50, inhibition of TPA-induced MPO activity (TPA-induced MPO activity [4]; [10]): 0.065 mg/20 μl
inhibition of TPA-induced increases in MPO activity (TPA-induced MPO activity [4]; [10]): > 80%
reduction in dermal neutrophils (counted) ([5]; 1.0 mg/20 μl AFC, TPA irritation, statistically significant): 80%
neutrophils observed histologically in AFC treated ear ([5]; TPA pretreated ears, H&E): substantial reduction of neutrophils
effect on TPA-induced MPO activity versus time of application (TPA-induced MPO activity [6]): efficacy of AFC treatment prior to, simultaneous with, or after exposure of skin to TPA
TPA-induced erythema (TPA-induced erythema): observed an effect
skin irritation at patch site 1a (human skin; 20% SDS patch removed after 2 hours): normal skin
skin irritation at patch site 1b (human skin; 20% SDS patch removed after 2 hours and 30 minutes): mild response
chronic edema (chronic irritation): reduces
neutrophil number (chronic irritation) (chronic irritation): reduces
edema (DNFB challenge) [7]: effective in reducing
neutrophil infiltration (DNFB challenge) [7]: effective in reducing
inhibition of membrane-associated polyisoprenoid methyl transferase [8]: inhibit
neutrophil, macrophage, and platelet responses in vitro [9]: block some
